The test system of one experiment is A-375. Put plainly: Cytotoxicity against human A375 cells expressing B-RafV600E mutant. It counts as functional, cell-based.
Experiment [1] concerns the target Serine/threonine-protein kinase B-raf (Homo sapiens, UniProt P15056). Put plainly: Inhibition of human recombinant B-Raf expressed in Sf9 cells assessed as inhibition of Mek1 phosphorylation.
Another experiment relates to HT-29. Description: Cytotoxicity against human HT-29 cells expressing B-RafV600E mutant. Format: functional, cell-based.
In the next experiment the test system is Caco-2. Put plainly: Cytotoxicity against human Caco-2 cells expressing wild type B-Raf. Format: functional, cell-based.
Experiment [2] deals with Rho-associated protein kinase 1 (Homo sapiens, UniProt Q13464). Put plainly: Inhibition of ROCK1.
Experiment [3] addresses Platelet-derived growth factor receptor alpha (Homo sapiens, UniProt P16234). Put plainly: Inhibition of PDGFRalpha.
In experiment [4] the target is Inhibitor of nuclear factor kappa-B kinase subunit alpha (Homo sapiens, UniProt O15111). Description: Inhibition of IKKalpha.
Chain of Inhibitor of nuclear factor kappa-B kinase subunit alpha (O15111 whole entry): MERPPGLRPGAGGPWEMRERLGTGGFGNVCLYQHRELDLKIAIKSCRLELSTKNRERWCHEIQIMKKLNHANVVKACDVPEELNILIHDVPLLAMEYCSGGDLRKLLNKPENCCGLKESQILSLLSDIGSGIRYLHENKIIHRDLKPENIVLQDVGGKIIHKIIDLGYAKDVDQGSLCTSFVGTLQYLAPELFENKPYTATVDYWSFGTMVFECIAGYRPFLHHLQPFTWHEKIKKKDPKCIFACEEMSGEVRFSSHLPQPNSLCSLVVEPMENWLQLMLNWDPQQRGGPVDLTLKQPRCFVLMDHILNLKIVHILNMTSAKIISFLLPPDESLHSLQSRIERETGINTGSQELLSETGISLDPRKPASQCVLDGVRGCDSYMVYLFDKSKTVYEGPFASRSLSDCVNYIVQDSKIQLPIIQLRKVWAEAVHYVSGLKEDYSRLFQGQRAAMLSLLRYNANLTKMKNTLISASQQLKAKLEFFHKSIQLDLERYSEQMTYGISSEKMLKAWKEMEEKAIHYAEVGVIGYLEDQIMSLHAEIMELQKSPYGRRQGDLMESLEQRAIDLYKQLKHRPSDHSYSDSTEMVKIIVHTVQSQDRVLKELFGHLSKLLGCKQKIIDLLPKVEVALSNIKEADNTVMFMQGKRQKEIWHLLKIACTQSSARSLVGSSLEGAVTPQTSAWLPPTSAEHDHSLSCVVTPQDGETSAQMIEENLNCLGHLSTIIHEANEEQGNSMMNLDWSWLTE
Experiment [5] deals with Hepatocyte growth factor receptor (Homo sapiens, UniProt P08581). Put plainly: Inhibition of Met.
The target of experiment [6] is Mitogen-activated protein kinase 1 (Homo sapiens, UniProt P28482). Description: Inhibition of ERK2.
The target in experiment [7] is Protein kinase C alpha type (Homo sapiens, UniProt P17252). Description: Inhibition of PKCalpha.
In experiment [8] the target is Proto-oncogene tyrosine-protein kinase Src (Homo sapiens, UniProt P12931). Put plainly: Inhibition of SRC.
Chain of Proto-oncogene tyrosine-protein kinase Src (P12931 2-536 limits assumed): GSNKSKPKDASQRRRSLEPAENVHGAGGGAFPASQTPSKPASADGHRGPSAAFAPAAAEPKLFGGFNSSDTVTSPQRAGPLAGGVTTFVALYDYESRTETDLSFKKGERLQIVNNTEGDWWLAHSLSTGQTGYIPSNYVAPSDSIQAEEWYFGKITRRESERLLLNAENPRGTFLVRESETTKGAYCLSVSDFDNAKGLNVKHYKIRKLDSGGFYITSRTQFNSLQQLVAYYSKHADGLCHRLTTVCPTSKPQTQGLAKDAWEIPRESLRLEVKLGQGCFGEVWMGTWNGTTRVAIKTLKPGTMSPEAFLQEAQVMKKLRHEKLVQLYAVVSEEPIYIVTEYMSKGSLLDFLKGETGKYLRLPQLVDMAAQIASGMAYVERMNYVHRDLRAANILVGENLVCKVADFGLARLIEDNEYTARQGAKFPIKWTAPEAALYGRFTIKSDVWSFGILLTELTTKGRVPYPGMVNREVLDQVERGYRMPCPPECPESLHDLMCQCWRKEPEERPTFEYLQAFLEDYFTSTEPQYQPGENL
For experiment [9], the target named is Tyrosine-protein kinase ABL1 (Homo sapiens, UniProt P00519).
In another experiment the target is Aurora kinase B (Homo sapiens, UniProt Q96GD4). Put plainly: Inhibition of Aurora B.
Experiment [10] deals with Cyclin-dependent kinase 2 (Homo sapiens, UniProt P24941). Description: Inhibition of CDK2.
The target of experiment [11] is Cyclin-dependent kinase 1 (Homo sapiens, UniProt P06493). Description: Inhibition of CDK1.
In experiment [12] the target is Inhibitor of nuclear factor kappa-B kinase subunit beta (Homo sapiens, UniProt O14920). Description: Inhibition of IKK-beta.
A short description of experiment [13]: Inhibition of VEGFR2.
Experiment [14] deals with Tyrosine-protein kinase HCK (Homo sapiens, UniProt P08631). Description: Inhibition of HCK.
In experiment [15] the target is Mitogen-activated protein kinase kinase kinase kinase 2 (Homo sapiens, UniProt Q12851). Put plainly: Inhibition of GCK.
In experiment [16] the target is Tyrosine-protein kinase Fyn (Homo sapiens, UniProt P06241). Put plainly: Inhibition of FYN.
Chain of Tyrosine-protein kinase Fyn (P06241 whole entry): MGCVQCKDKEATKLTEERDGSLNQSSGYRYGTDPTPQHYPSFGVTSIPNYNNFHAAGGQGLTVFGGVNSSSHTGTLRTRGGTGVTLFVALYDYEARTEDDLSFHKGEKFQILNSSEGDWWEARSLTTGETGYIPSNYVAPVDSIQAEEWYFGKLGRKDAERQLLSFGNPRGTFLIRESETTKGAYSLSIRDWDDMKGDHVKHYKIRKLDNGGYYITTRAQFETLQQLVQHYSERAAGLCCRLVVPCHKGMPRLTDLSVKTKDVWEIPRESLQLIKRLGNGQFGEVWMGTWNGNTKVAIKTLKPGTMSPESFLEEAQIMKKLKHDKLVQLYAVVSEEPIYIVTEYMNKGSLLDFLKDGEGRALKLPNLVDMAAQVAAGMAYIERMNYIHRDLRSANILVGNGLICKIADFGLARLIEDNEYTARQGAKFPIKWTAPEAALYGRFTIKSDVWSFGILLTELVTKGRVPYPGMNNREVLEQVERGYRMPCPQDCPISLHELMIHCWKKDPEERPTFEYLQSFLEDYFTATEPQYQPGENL
Experiment [17] has as its target Protein kinase C beta type (Homo sapiens, UniProt P05771). Put plainly: Inhibition of PKCbeta.
Experiment [18] in a line: Inhibition of PKA.
The target in experiment [19] is Tyrosine-protein kinase Lyn (Homo sapiens, UniProt P07948). Put plainly: Inhibition of LYN.
Chain of Tyrosine-protein kinase Lyn (P07948 whole entry): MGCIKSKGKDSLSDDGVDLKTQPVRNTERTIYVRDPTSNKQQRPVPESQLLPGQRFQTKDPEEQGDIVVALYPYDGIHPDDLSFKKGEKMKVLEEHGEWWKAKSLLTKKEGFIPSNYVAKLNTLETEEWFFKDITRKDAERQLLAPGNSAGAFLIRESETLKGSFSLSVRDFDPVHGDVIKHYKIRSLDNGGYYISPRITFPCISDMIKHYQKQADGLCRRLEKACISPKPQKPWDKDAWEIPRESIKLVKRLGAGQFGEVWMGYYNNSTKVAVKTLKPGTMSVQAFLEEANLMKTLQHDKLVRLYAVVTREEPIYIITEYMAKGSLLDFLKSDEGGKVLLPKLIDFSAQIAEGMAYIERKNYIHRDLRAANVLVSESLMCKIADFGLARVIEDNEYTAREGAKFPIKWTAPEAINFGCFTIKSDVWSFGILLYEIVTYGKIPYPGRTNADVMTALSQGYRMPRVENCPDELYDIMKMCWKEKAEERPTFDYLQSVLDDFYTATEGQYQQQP
In experiment [20] the target is MAP kinase-activated protein kinase 2 (Homo sapiens, UniProt P49137). Description: Inhibition of MK2.
Chain of MAP kinase-activated protein kinase 2 (P49137 whole entry, canonical isoform): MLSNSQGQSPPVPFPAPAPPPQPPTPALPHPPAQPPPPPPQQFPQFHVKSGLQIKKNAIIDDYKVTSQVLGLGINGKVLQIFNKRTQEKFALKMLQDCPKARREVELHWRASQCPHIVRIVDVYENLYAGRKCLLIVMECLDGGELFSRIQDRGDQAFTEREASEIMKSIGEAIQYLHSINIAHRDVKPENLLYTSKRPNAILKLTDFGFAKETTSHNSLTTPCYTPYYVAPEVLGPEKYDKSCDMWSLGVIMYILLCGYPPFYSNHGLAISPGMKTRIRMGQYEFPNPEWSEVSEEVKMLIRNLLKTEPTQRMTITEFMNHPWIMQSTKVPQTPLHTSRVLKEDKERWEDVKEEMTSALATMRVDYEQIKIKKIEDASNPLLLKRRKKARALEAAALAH
Experiment [21] concerns the target Casein kinase I isoform gamma-1 (Homo sapiens, UniProt Q9HCP0). Description: Inhibition of CK1gamma1.
The target in experiment [22] is Ribosomal protein S6 kinase alpha-1 (Homo sapiens, UniProt Q15418). Description: Inhibition of RSk1.
Experiment [23] deals with Serine/threonine-protein kinase Chk1 (Homo sapiens, UniProt O14757). Put plainly: Inhibition of CHK1.
Chain of Serine/threonine-protein kinase Chk1 (O14757 whole entry): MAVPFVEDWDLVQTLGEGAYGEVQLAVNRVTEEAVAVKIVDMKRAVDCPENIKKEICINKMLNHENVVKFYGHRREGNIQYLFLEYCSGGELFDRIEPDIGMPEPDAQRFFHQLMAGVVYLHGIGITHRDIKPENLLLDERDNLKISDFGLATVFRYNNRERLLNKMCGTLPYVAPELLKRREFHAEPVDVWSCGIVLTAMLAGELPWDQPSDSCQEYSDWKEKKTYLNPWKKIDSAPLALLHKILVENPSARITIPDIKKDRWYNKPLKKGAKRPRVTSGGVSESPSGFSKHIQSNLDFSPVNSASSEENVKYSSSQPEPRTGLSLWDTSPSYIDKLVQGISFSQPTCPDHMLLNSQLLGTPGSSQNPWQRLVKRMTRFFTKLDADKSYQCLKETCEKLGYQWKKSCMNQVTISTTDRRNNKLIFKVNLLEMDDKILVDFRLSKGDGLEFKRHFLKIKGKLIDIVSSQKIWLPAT
The target of experiment [24] is Mitogen-activated protein kinase 14 (Homo sapiens, UniProt Q16539). Description: Inhibition of p38alpha.
Chain of Mitogen-activated protein kinase 14 (Q16539 whole entry): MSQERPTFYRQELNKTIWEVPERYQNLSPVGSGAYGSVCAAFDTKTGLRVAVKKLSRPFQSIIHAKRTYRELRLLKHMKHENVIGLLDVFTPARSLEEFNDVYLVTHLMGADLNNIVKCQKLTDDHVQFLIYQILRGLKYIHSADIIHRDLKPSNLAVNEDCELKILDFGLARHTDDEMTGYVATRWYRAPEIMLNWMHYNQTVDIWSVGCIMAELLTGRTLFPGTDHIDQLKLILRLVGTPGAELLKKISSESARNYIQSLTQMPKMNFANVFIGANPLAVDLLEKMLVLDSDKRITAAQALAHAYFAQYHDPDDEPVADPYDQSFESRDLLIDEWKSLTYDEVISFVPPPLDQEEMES

The structures appear in SMILES notation.

Chain of Serine/threonine-protein kinase B-raf (P15056 whole entry): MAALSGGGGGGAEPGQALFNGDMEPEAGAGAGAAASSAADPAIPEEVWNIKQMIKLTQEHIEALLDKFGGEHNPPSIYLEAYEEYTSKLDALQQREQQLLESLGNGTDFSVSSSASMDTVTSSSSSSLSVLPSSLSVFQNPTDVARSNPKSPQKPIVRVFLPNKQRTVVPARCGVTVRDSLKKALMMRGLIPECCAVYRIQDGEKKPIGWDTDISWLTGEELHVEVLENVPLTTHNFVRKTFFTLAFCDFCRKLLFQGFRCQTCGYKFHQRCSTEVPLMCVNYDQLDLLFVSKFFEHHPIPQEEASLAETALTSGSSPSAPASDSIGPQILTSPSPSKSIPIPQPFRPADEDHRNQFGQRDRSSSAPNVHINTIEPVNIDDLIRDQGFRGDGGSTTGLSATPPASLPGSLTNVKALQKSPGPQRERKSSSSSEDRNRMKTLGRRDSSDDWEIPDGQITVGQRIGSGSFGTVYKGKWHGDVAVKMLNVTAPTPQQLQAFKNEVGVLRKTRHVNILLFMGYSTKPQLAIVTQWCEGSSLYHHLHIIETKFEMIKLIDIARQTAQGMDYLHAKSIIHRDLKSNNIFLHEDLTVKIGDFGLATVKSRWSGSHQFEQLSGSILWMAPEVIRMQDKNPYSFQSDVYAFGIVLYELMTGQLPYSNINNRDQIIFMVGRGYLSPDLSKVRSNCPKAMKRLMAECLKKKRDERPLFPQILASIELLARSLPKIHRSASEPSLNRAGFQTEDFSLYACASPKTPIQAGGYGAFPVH
Chain of Casein kinase I isoform gamma-1 (Q9HCP0 whole entry, canonical isoform): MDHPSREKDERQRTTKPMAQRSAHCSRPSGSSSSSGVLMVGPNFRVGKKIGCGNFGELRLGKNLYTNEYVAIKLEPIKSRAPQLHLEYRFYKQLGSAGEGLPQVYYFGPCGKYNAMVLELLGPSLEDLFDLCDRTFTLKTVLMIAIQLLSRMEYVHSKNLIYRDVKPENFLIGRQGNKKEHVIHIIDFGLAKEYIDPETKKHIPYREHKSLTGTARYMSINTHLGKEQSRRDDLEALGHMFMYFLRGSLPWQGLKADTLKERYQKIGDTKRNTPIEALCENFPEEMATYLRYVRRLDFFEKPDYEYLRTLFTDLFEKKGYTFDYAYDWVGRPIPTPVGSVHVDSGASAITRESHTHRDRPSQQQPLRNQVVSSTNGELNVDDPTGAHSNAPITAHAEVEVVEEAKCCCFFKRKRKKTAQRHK

`CC(=O)N1C[C@@H]2C[C@H]1CN2c1ccc(-c2ccnc3c(-c4ccc(F)c(O)c4)c(-c4ccncc4)nn23)cc1`: in the experiment with A-375, the IC50 is 210 nM.
For the molecule `COc1cc(-c2c(-c3ccncc3)nn3c(-c4ccc(N5C[C@@H]6C[C@H]5CN6C)cc4C)ccnc23)ccc1F`, the IC50 came out at 933 nM in the experiment with A-375 and 1 nM in experiment [1].
The molecule `COc1cc(-c2c(-c3ccncc3)nn3c(-c4ccc(N5C[C@@H]6C[C@H]5CN6)cc4)ccnc23)ccc1F` came in with an IC50 in the experiment with A-375 of 1200 nM.
As for `CN1C2CCC1CN(c1ccc(-c3ccnc4c(-c5cccc(O)c5)c(-c5ccncc5)nn34)cc1)C2`, the half-maximal inhibitory concentration (IC50) is 300 nM with A-375, 270 nM in the experiment on HT-29, 0.9 nM in experiment [1] and 1300 nM in the experiment with Caco-2.
With `COc1cccc(-c2c(-c3ccncc3)nn3c(-c4ccc(N5C[C@@H]6C[C@H]5CN6C)cc4)ccnc23)c1`, it took 760 nM to reach half-maximal inhibition with A-375 (IC50).
`COc1cc(-c2c(-c3ccncc3)nn3c(-c4ccc(N5C[C@@H]6C[C@H]5CN6C)cc4)ccnc23)ccc1F`: in the experiment with A-375, 6000 nM corresponded to half-maximal inhibition (IC50).
Turning to `CCN1C[C@@H]2C[C@H]1CN2c1ccc(-c2ccnc3c(-c4ccc(F)c(O)c4)c(-c4ccncc4)nn23)cc1`, the half-inhibitory concentration (IC50) in the experiment on A-375 was 200 nM; in experiment [1] it was 0.51 nM.
For the molecule `COc1cccc(-c2c(-c3ccncc3)nn3c(-c4ccc(N5C[C@@H]6C[C@H]5CN6)cc4)ccnc23)c1`, the figures for the IC50 (with A-375; in experiment [1]) were 1100 nM and 12 nM, respectively.
In the case of `COc1cccc(-c2c(-c3ccncc3)nn3c(-c4ccc(N5C[C@@H]6C[C@H]5CN6)cc4F)ccnc23)c1`, the IC50 was 504 nM in the experiment on A-375 and 0.44 nM in experiment [1].
For `COc1cccc(-c2c(-c3ccncc3)nn3c(-c4ccc(N5CC6CCC(C5)N6C)cc4)ccnc23)c1`, the half-maximal inhibitory concentration (IC50) with A-375 is 1900 nM; in experiment [1] it was 17 nM.
Take `CN1C2CCC1CN(c1ccc(-c3ccnc4c(-c5ccc(Cl)c(O)c5)c(-c5ccncc5)nn34)cc1)C2`: the IC50 in the experiment on A-375 is 170 nM; in experiment [1], less than 0.32 nM.
For the molecule `CN1C[C@@H]2C[C@H]1CN2c1ccc(-c2ccnc3c(-c4cccc(O)c4)c(-c4ccncc4)nn23)c(Cl)c1`, the IC50 in the experiment on A-375 is less than 10 nM; in experiment [1], less than 0.32 nM.
Regarding `CN1C[C@@H]2C[C@H]1CN2c1ccc(-c2ccnc3c(-c4ccc(F)c(O)c4)c(-c4ccncc4)nn23)cc1`, the IC50 in the experiment with A-375 was 76 nM; in experiment [1], less than 0.32 nM.
Taken in the same sequence, the figures for `Cc1cc(N2C[C@@H]3C[C@H]2CN3C)ccc1-c1ccnc2c(-c3ccc(F)c(O)c3)c(-c3ccncc3)nn12` were 15 nM and less than 0.32 nM.
As for `Oc1cccc(-c2c(-c3ccncc3)nn3c(-c4ccc(N[C@H]5CN6CCC5CC6)cc4)ccnc23)c1`, the 50% inhibitory concentration (IC50) with A-375 amounted to 385 nM; in experiment [1], 1 nM.
Regarding `Cc1cc(N2C[C@@H]3C[C@H]2CN3C)ccc1-c1ccnc2c(-c3cccc(O)c3)c(-c3ccncc3)nn12`, the results for the IC50 (in the experiment on A-375; in [1]) were 31 nM and less than 0.32 nM, respectively.
In the case of `Oc1cccc(-c2c(-c3ccncc3)nn3c(-c4ccc(N5C[C@@H]6C[C@H]5CN6)cc4)ccnc23)c1`, the IC50 is 300 nM in the experiment with A-375 and 0.49 nM in [1].
`Cc1cc(N2C[C@@H]3C[C@H]2CN3)ccc1-c1ccnc2c(-c3cccc(O)c3)c(-c3ccncc3)nn12` yielded an IC50 in the experiment with A-375 of 65 nM.
As to `CN1C[C@@H]2C[C@H]1CN2c1ccc(-c2ccnc3c(-c4cccc(O)c4)c(-c4ccncc4)nn23)c(F)c1`, the IC50 with A-375 is 12 nM; in experiment [1], less than 0.32 nM.
`Oc1cccc(-c2c(-c3ccncc3)nn3c(-c4ccc(N[C@@H]5CN6CCC5CC6)cc4)ccnc23)c1`: the IC50 in the experiment with A-375 came out at 370 nM; in experiment [1], 1.5 nM.
As to `CN1C[C@@H]2C[C@H]1CN2c1ccc(-c2ccnc3c(-c4cccc(O)c4)c(-c4ccncc4)nn23)cc1`, the half-maximal inhibitory concentration (IC50) in experiment [2] is 17600 nM; in experiment [3], 6560 nM; in [4] it was more than 50000 nM; in experiment [5] it was 3100 nM; in [6], more than 50000 nM; in experiment [7] it was 2460 nM. Moreover, the half-maximal inhibitory concentration (IC50) is 675 nM in experiment [8]; 563 nM in experiment [9]; 25500 nM against Aurora kinase B; 26400 nM in [10]; 28400 nM in [11]; more than 50000 nM in experiment [12]. For the same molecule, the concentration for half-maximal inhibition (IC50) in experiment [13] amounted to 222 nM; in the experiment with A-375, 77 nM; in [14] it was 1240 nM; in experiment [15] it was 4100 nM; in [1], 0.38 nM; in [16], 1940 nM. The concentration for half-maximal inhibition (IC50) in [17] came out at 119 nM; in experiment [18] it was 1790 nM; in [19] it was 1760 nM; in [20] it was 17100 nM; in experiment [21] it was 9510 nM; in [22] it was 9710 nM. In addition, the results for the concentration for half-maximal inhibition (IC50) in experiment [23] and in experiment [24] were 18600 nM and 69 nM, respectively.
Take `COc1cc(-c2c(-c3ccncc3)nn3c(-c4ccc(N5CC6CCC(C5)N6C)cc4)ccnc23)ccc1Cl`: the half-inhibitory concentration (IC50) with A-375 was determined as 630 nM; in experiment [1], 9.7 nM.
Taken in the same sequence, the figures for `Oc1cccc(-c2c(-c3ccncc3)nn3c(-c4ccc(NCC56CCN(CC5)CC6)cc4)ccnc23)c1` were 930 nM and 2 nM.
For `Oc1cccc(-c2c(-c3ccncc3)nn3c(-c4ccc(N5C[C@@H]6C[C@H]5CN6)cc4F)ccnc23)c1`, in that order: 23 nM and less than 0.32 nM.
On to `Oc1cccc(-c2c(-c3ccncc3)nn3c(-c4ccc(N5C[C@@H]6C[C@H]5CN6)cc4Cl)ccnc23)c1`, for which the IC50 is 16 nM in the experiment with A-375 and less than 0.32 nM in experiment [1].
Taken in the same sequence, the figures for `Oc1cc(-c2c(-c3ccncc3)nn3c(-c4ccc(N5C[C@@H]6C[C@H]5CN6)cc4)ccnc23)ccc1F` were 150 nM and less than 0.32 nM.
With `CCOC(=O)c1cnn2c(-c3cccc(NC(=O)c4cccc(C(F)(F)F)c4)c3)ccnc12`, the IC50 in [1] was determined as 1500 nM.
